The target of one data set is T1, DmTRET1 (Drosophila melanogaster, UniProt A1Z8N1).
T1 construct: ORF of either Tret1, DmTret1, AmTret1, AgTret1 or BmTret1 cDNA was amplified with PCR; expressed in transfected cells; host or cells: Xenopus laevis oocytes injected with cRNA
T1 sequence (A1Z8N1 352-857): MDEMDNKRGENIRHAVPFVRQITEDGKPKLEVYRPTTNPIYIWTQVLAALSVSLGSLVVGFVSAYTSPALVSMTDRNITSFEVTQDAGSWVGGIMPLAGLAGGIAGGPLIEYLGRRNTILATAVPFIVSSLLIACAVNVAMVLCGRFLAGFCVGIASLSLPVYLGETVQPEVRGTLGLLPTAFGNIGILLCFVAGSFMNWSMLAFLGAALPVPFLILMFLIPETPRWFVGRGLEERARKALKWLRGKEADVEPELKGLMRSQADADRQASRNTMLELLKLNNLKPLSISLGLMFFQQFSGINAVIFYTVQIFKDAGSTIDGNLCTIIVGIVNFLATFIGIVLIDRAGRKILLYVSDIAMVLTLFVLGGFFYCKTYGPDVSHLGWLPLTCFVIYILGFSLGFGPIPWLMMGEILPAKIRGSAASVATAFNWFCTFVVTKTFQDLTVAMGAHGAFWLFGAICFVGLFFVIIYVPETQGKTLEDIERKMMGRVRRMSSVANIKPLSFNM
As to the kind of experiment: Trehalose uptake in Xenopus oocytes expressing DmTRET1. Type of data set: cell-based. The following applies: 105 mM of trehalose, 3 h. An excerpt: (§1) The capped RNA (cRNA) expression vector pTRET1-XbG-ev1 series was constructed as follows: ORF of either Tret1, DmTret1, AmTret1, AgTret1 or BmTret1 cDNA was amplified with PCR using specific primers containing Bgl II site at the 5′-end on each primer, respectively. The PCR products were digested with the restriction enzymes, and cloned into the site of Bgl II in pXbG-ev1 (Preston, G. M., et al. (1992) Science 256, 385-387). ORF of hGLUT1 cDNA was obtained by digestion of pSPMM1 with BamH I, and then subcloned into the site of Bgl II in pXbG-2. Template DNAs for cRNA synthesis were amplified from the corresponding cRNA expression vectors with a high fidelity DNA polymerase, KOD—Plus—, (TOYOBO). The cRNAs were synthesized with mMESSAGE mMACHINE T7 Kit (Ambion), and then purified with RNeasy MiniElute Cleanup kit (Qiagen).
(§2) All uptake assays for zero-trans trehalose and/or other sugars were performed using Xenopus oocytes expressing TRET1 at 15° C. in MBS containing appropriate concentrations of sugars. Sugar concentrations were determined using HPLC (Watanabe, M., et al. (2002) J Exp Biol 205, 2799-2802). All assays were carried out in triplicate. […] (data not shown).
(§3) Likewise, whether these Tret1-orthologs have trehalose transport activity was examined using the Xenopus oocyte expression system incubated in 105 mM of trehalose for 3 h.

The target of a further data set is T2, AgTRET1 (Anopheles gambiae, UniProt Q7PIR5).
T2 construct: ORF of either Tret1, DmTret1, AmTret1, AgTret1 or BmTret1 cDNA was amplified with PCR; expressed in transfected cells; host or cells: Xenopus laevis oocytes injected with cRNA
T2 sequence (Q7PIR5 290-793): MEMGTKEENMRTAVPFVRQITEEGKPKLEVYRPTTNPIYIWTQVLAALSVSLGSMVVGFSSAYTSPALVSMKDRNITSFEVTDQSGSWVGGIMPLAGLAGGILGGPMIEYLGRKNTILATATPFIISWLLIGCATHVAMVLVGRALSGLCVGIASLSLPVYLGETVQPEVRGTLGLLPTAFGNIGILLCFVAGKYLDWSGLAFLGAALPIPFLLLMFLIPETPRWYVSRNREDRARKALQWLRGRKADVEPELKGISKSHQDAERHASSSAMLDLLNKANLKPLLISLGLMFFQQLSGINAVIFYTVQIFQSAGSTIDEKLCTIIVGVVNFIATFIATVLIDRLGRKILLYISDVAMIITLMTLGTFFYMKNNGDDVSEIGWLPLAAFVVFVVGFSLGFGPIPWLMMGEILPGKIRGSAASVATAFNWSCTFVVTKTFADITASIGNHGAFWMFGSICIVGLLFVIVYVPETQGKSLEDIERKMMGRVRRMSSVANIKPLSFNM
As to the kind of experiment: Trehalose uptake in Xenopus oocytes expressing AgTRET1. Type of data set: cell-based. The following applies: 105 mM of trehalose, 3 h.
Text: as §1, §2, §3

The next data set concerns the target T3, BmTRET1 (Bombyx mori, UniProt A9ZSY3).
T3 construct: ORF of either Tret1, DmTret1, AmTret1, AgTret1 or BmTret1 cDNA was amplified with PCR; expressed in transfected cells; host or cells: Xenopus laevis oocytes injected with cRNA
T3 sequence (A9ZSY3 1-505): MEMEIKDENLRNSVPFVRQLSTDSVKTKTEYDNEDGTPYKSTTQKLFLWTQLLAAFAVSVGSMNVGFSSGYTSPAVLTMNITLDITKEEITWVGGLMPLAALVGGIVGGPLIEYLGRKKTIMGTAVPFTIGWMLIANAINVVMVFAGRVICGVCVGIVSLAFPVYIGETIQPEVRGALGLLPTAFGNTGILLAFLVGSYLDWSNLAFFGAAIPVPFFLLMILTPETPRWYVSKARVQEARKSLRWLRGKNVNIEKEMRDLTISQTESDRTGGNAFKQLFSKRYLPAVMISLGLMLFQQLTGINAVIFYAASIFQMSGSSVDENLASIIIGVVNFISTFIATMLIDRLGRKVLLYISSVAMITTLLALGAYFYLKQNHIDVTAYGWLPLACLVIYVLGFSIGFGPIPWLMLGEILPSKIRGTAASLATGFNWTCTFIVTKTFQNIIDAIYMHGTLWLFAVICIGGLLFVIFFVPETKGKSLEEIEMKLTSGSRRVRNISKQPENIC
The data set can be described thus: Trehalose uptake in Xenopus oocytes expressing BmTRET1. Type of data set: cell-based. The following applies: 105 mM of trehalose, 3 h.
Text: as §1, §2, §3

A short description of data set [1]: Degradation of trehalose in extracts of mammalian cells. The data set is classed as in vitro ADME. The following applies: extracts of CHO-K1, HuH-7, NIH3T3 cells, 3 h at 37° C., data not shown.

Turning to `OC[C@H]1O[C@H](O[C@H]2O[C@H](CO)[C@@H](O)[C@H](O)[C@H]2O)[C@H](O)[C@@H](O)[C@@H]1O` [trehalose], the trehalose transport activity entry at DmTRET1, at AgTRET1 and at BmTRET1 was “showed trehalose transport activity” each time. Besides, the degradation of trehalose entry in data set [1] is “No degradation”.
